Data published in US11607378B2, “Cosmetic composition comprising amide-based compound” (Neopharm Co., Ltd., priority 2020, dated 2023).

Tests used:
[1] = system: reactive oxygen species (ROS) in dermal fibroblasts; test: Effect of removing reactive oxygen species (ROS), DCF-DA fluorescence image; type: cell-based, human; settings: blue light 40 J/cm^2, sample 100 μM, 24 hours, DCF-DA (FIG. 2)
Description: An effect of removing the reactive oxygen species was determined for the samples of Examples and Comparative Examples of the present invention.
An image analysis for generation of reactive oxygen species (ROS) in the cells was carried out by seeding 1×10^5 (100 μL/well) dermal fibroblasts in a 12-well plate to which a cover slip was attached. The dermal fibroblasts were exposed to blue light of 40 J/cm^2, and then treated with each of the samples (100 μM) of Examples and Comparative Examples. Then, the cells were additionally cultured at 37° C. for 24 hours.
After 24 hours, 100 μM DCF-DA was put into each well, and the cells were cultured at 37° C. for 45 minutes. After the cells were washed with PBS, the stained cells were put on a microscope slide containing a mounting medium. A microscopic image was observed as a fluorescent microscopic image.

p16^INK4A = test: Expression level of p16^INK4A by Western blot after blue light; type: cell-based; settings: human dermal fibroblasts, blue light 40 J/cm^2, sample 100 μM, 24 hours, Western blot (FIG. 1)
Description: (1) An expression level of p16^INK4A was determined through Western blot in Examples and Comparative Examples of the present invention.
Specifically, human dermal fibroblasts were cultured in a 12-well plate containing a Dulbecco's modified eagle medium (DMEM) medium supplemented with 10% fetal bovine serum (FBS) to attach 1.5×10^5 (1 mL/well) human dermal fibroblasts to the 12-well plate. The human dermal fibroblasts were cultured for 24 hours, and the medium was replaced with a 1% fetal bovine serum medium. Then, the human dermal fibroblasts were exposed to blue light of 40 J/cm^2, and then treated with each of the samples (100 μM) of Examples and Comparative Examples. Thereafter, the cells were additionally cultured at 37° C. for 24 hours. Then, the cells were recovered, and each of these samples was subjected to Western blot to analyze an expression level of p16^INK4A in the dermal fibroblasts. Each of samples of Examples 1 and 2 and Comparative Example 1 including the amide-based compound having a structure shown in the following Table 1 was used as the sample.
The control of FIG. 1 represents an experimental group in which the cells were not treated with the sample, and (-) represents a result of the experimental group exposed to blue light.

[2] = system: carbonylated protein in artificial skin (EpiDermFT); test: Effect on generation of carbonylated protein in artificial skin (DNPH assay, ICC staining); type: cell-based; settings: sample 0.3% 50 μL, blue light 40 J/cm^2, 48 hours, image J quantification (FIG. 4)
Description: An artificial skin (EpiDermFT™ from MatTek, Ashland, USA) was purchased, and then stabilized for 18 hours in an exclusive medium (EFT-400). 50 μL of each of the samples of Examples and Comparative Examples was applied to the artificial skin at a concentration of 0.3%, and then cultured for an hour. The artificial skin was exposed to blue light of 40 J/cm^2. After 48 hours, the artificial skin tissue was fixed in 10% formaldehyde, and embedded into paraffin. Thereafter, the tissue was microtomed into sections with a size of […]. Then, the microtomed tissue was used to confirm an effect on a change in activity of the carbonylated protein.
The tissue was stained by a DNPH assay using an immunocytochemical (ICC) staining method, and then observed in a fluorescent microscopic image. Thereafter, the microscopic image was digitized using an image J program.

[3] = system: superoxide dismutase (SOD); test: Effect on antioxidant activity (Superoxide Dismutase Activity Assay kit) after blue light; type: cell-based, human; settings: dermal fibroblasts, blue light 40 J/cm^2, sample 100 μM, 48 hours (FIG. 3)
Description: Effects of the samples of Examples and Comparative Examples of the present invention on a change in antioxidant activity after irradiation with blue light were confirmed.
Specifically, 1.5×10^5 (1 mL/well) dermal fibroblasts were seeded in a 6-well plate, and cultured for 24 hours. The dermal fibroblasts were exposed to blue light of 40 J/cm^2, and then treated with each of the samples (100 μM) of Examples and Comparative Examples. After 48 hours, the cells were recovered. The cells were dissolved in a cell lysis buffer (pH 7.4) containing 0.1 M Tris/HCl, 0.5% Triton X-100, 5 mM β-ME, and 0.1 mg/ml PMSF, and a supernatant separated by centrifugation was then analyzed using a Superoxide Dismutase Activity Assay kit (ab65354). Then, the absorbance was measured at a wavelength of 450 nm in a microplate reader.

| Structure (SMILES) | inhibiting the generation of reactive oxygen species and removing the generated reactive oxygen species [1] | expression level of p16^INK4A (p16^INK4A) [%] | carbonylated protein (which had increased by 72.04% by blue light) [2] [%] | SOD activity (which had been reduced by 32.64% by blue light) [3] [%] |
| --- | --- | --- | --- | --- |
| CCCCC(CC)C(=O)NC(CO)CO (centres unmarked) [Comparative Example 1, N-(1,3-dihydroxypropan-2-yl)-2-ethylhexanamide, reference compound] | did not exhibit a significant effect | 120 | – | – |
| CCCCC(C)C(=O)NCCO (centres unmarked) [Example 2, N-(2-hydroxyethyl)-2-methyl-hexanamide] | – | 53.9 | 16.67 | 92.3 |
